The record followed here is US20220144848A1, “SUBSTITUTED OXOPYRIDINE DERIVATIVES” (Bayer Aktiengesellschaft, priority 2018, published 2022).

For one assay, the target named is T1, human plasma kallikrein (Homo sapiens, UniProt P03952).
T1 construct: purchased Kordia
Kind of assay: Determination of the plasma kallikrein activity (fluorogenic peptide substrate H-Pro-Phe-Arg-AMC). As to conditions: plasma kallikrein from Kordia, 15 min preincubation, 30 min at 22° C., fluorescence; some as mean values from multiple determinations. In kind it is biochemical.

For another assay, the target named is T2, human factor XIa (Homo sapiens, UniProt P03951).
T2 construct: purchased Kordia
T2 sequence (P03951 388-625 limits assumed): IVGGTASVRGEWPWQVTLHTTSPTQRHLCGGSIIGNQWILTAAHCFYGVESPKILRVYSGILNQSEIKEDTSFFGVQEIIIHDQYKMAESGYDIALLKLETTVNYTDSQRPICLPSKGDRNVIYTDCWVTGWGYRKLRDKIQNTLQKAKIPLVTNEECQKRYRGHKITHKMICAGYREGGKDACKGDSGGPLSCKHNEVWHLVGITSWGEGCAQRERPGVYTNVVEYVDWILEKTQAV
T2 sequence (P03951 19-387 partner limits assumed): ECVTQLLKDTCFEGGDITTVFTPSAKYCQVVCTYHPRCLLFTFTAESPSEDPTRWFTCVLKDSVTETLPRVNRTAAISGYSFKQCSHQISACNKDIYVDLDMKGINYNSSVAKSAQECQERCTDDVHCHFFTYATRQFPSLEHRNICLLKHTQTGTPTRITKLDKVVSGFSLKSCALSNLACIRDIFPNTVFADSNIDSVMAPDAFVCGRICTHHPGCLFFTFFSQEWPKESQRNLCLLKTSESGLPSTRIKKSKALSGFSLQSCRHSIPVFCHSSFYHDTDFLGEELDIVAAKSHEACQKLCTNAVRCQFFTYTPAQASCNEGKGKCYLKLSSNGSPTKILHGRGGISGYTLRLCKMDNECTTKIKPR
In words: Measurement of FXIa inhibition (fluorogenic peptide substrate Boc-Glu(OBzl)-Ala-Arg-AMC). In kind it is biochemical. As to conditions: factor XIa from Kordia, 15 min preincubation, 30 min at 22° C., fluorescence; some as mean values from multiple determinations.

SMILES strings stand for the structures. pIC50: −log10 of the molar value.

T1 sequence (P03952 391-638 limits assumed): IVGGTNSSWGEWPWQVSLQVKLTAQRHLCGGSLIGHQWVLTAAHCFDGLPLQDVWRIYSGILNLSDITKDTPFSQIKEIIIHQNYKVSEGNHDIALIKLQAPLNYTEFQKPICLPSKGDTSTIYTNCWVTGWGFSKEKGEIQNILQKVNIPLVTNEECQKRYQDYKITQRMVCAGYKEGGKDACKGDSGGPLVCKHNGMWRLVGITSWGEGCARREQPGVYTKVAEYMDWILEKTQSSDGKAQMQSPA
T1 sequence (P03952 20-390 partner limits assumed): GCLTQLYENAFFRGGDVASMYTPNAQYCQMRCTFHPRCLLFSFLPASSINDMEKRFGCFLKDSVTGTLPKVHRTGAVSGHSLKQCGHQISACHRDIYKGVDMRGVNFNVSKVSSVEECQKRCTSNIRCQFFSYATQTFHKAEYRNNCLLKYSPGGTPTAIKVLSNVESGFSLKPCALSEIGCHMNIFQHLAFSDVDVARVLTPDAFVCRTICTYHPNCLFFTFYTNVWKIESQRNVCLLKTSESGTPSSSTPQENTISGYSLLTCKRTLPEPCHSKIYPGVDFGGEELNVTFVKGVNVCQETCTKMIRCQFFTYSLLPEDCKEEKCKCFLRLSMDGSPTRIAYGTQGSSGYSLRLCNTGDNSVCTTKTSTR

As a reminder, the pIC50 is the negative decadic logarithm of the IC50, by convention in mol/L. A low value points to a high IC50. In the case of `CC[C@@H](C(=O)Nc1ccc(C(N)=O)cc1)n1cc2c(cc1=O)-c1c(ccc(Cl)c1F)C[C@@H](C)O[C@H]2C` (single isomer, unassigned) [Example 75], the pIC50 is 7.40 against human plasma kallikrein and 8.23 on human factor XIa.

For the compound `CC[C@@H](C(=O)Nc1ccc(C(N)=O)cc1)n1cc2c(cc1=O)-c1c(ccc(Cl)c1F)C[C@@H](C(F)(F)F)OC2` (single isomer, unassigned) [Example 68], the negative logarithm of the IC50 (pIC50) against human plasma kallikrein was 6.77; against human factor XIa it was 8.16.

In the case of `C[C@@H]1Cc2ccc(Cl)cc2-c2cc(=O)n([C@@H](C[C@@H]3COCCO3)C(=O)Nc3ccc(C(N)=O)c(F)c3)cc2CO1` (single isomer, unassigned) [Example 8], the figures for the pIC50 against human plasma kallikrein and at human factor XIa were 6.49 and 8.18, respectively.

As to `NC(=O)c1ccc(NC(=O)C(C[C@@H]2COCCO2)n2cc3c(cc2=O)-c2cc(Cl)ccc2CC(C(F)(F)F)OC3)cc1F` (mixture of isomers) [Example 56, 4-({2-[11-Chloro-2-oxo-7-(trifluoromethyl)-7,8-dihydro-2H-[3]benzoxocino[5,6-c]pyridin-3(5H)-yl]-3-[(2R)-1,4-dioxan-2-yl]propanoyl}amino)-2-fluorobenzamide], the results for the pIC50 at human plasma kallikrein and against human factor XIa were 6.13 and 8.12, respectively.

`NC(=O)c1ccc(NC(=O)C(C[C@@H]2CCCCO2)n2cc3c(cc2=O)-c2cc(Cl)ccc2CC(CO)OC3)cc1` (mixture of isomers) [Example 34, 4-{2-[11-Chloro-7-(hydroxymethyl)-2-oxo-7,8-dihydro-2H-[3]benzoxocino[5,6-c]pyridin-3(5H)-yl]-3-[(2S)-tetrahydro-2H-pyran-2-yl]propanamido}benzamide]: the negative logarithm of the IC50 (pIC50) was 6.31 at human plasma kallikrein and 8.16 against human factor XIa.

For the compound `CC[C@@H](C(=O)Nc1ccc(C(N)=O)c(F)c1)n1cc2c(cc1=O)-c1cc(Cl)ccc1C[C@@H](C(F)F)OC2` (single isomer, unassigned) [Example 47], the figures for the pIC50 at human plasma kallikrein and against human factor XIa were 5.82 and 7.25, respectively.

Regarding `COCC[C@@H](C(=O)Nc1ccc(C(N)=O)c(F)c1)n1cc2c(cc1=O)-c1cc(Cl)ccc1C[C@@H](C(F)(F)F)OC2` (single isomer, unassigned) [Example 61], the values for the negative-log IC50 (pIC50) on human plasma kallikrein and on human factor XIa were 6.47 and 8.00, respectively.

As to `NC(=O)c1ccc(NC(=O)[C@H](C[C@@H]2CCCCO2)n2cc3c(cc2=O)-c2cc(Cl)ccc2C[C@@H](CO)OC3)cc1F` (single isomer, unassigned) [Example 33], the pIC50 is 6.32 against human plasma kallikrein and 8.04 against human factor XIa.

In the case of `CC[C@@H]1Cc2ccc(Cl)cc2-c2cc(=O)n(C(C[C@@H]3CCCCO3)C(=O)Nc3ccc(C(N)=O)c(F)c3)cc2CO1` (mixture of isomers) [Example 30, 4-{2-[(7R)-11-Chloro-7-ethyl-2-oxo-7,8-dihydro-2H-[3]benzoxocino[5,6-c]pyridin-3(5H)-yl]-3-[(2S)-tetrahydro-2H-pyran-2-yl]propanamido}-2-fluorobenzamide], the pIC50 against human plasma kallikrein is 5.89; against human factor XIa it was 7.60.

On to `COCC[C@@H](C(=O)Nc1ccc(C(N)=O)cc1)n1cc2c(cc1=O)-c1cc(Cl)ccc1C[C@@H](C(F)(F)F)OC2` (single isomer, unassigned) [Example 63], for which the pIC50 on human plasma kallikrein is 6.96; against human factor XIa it was 8.60.

Regarding `CC(C)[C@@H]1Cc2ccc(Cl)cc2-c2cc(=O)n([C@@H](C[C@@H]3COCCO3)C(=O)Nc3ccc4nn(C)nc4c3)cc2CO1` (single isomer, unassigned) [Example 45], the negative logarithm of the IC50 (pIC50) at human plasma kallikrein was 6.18; on human factor XIa, 7.77.

For `C[C@@H]1Cc2ccc(Cl)cc2-c2cc(=O)n([C@@H](CCOC(F)F)C(=O)Nc3ccc(C(N)=O)cc3)cc2CO1` (single isomer, unassigned) [Example 17], the pIC50 against human plasma kallikrein is 7.14; against human factor XIa, 8.70.

In the case of `C[C@@H]1Cc2ccc(Cl)cc2-c2cc(=O)n([C@@H](CCOC(C)(C)C)C(=O)Nc3ccn4ncnc4c3)cc2CO1` (single isomer, unassigned) [Example 26], the negative logarithm of the IC50 (pIC50) against human plasma kallikrein is 6.77; at human factor XIa it was 7.55.

On to `NC(=O)c1ccc(NC(=O)[C@H](C[C@@H]2CCCCO2)n2cc3c(cc2=O)-c2cc(Cl)ccc2C[C@@H](C(F)F)OC3)cc1F` (single isomer, unassigned) [Example 49], for which the negative logarithm of the IC50 (pIC50) is 6.43 against human plasma kallikrein and 8.33 at human factor XIa.

With `NC(=O)c1ccc(NC(=O)[C@H](C[C@@H]2COCCO2)n2cc3c(cc2=O)-c2cc(Cl)ccc2C[C@@H](C(F)(F)F)OC3)cc1F` (single isomer, unassigned) [Example 57], the negative-log IC50 (pIC50) on human plasma kallikrein was 6.51; at human factor XIa, 8.42.

With `C[C@@H]1Cc2ccc(Cl)cc2-c2cc(=O)n([C@@H](C[C@H](C)OC(F)F)C(=O)Nc3ccc(C(N)=O)cc3)cc2CO1` (single isomer, unassigned) [Example 19], the pIC50 against human plasma kallikrein was 6.96; against human factor XIa it was 8.44.

Turning to `NC(=O)c1ccc(NC(=O)[C@H](C[C@@H]2COCCO2)n2cc3c(cc2=O)-c2cc(Cl)ccc2C[C@@H](C(F)(F)F)OC3)cc1` (single isomer, unassigned) [Example 59], the negative-log IC50 (pIC50) at human plasma kallikrein was 7.05; against human factor XIa, 9.05.

For the compound `CC1Cc2ccc(Cl)cc2-c2cc(=O)n(C(C[C@@H]3CCCCO3)C(=O)Nc3ccc(C(N)=O)c(F)c3)cc2CO1` (single isomer, unassigned) [Example 1], the pIC50 on human plasma kallikrein is 6.20; on human factor XIa, 7.96.

`C[C@@H]1Cc2ccc(Cl)cc2-c2cc(=O)n([C@@H](C[C@@H]3CCCCO3)C(=O)Nc3ccc(C(N)=O)cc3)cc2CO1` (single isomer, unassigned) [Example 6]: the pIC50 was 6.85 at human plasma kallikrein and 8.85 against human factor XIa.

For `CC1Cc2ccc(Cl)cc2-c2cc(=O)n(C(C[C@@H]3CCCCO3)C(=O)Nc3ccc(C(N)=O)nc3)cc2CO1` (mixture of isomers) [Example 3, 5-{2-(11-Chloro-7-methyl-2-oxo-7,8-dihydro-2H-[3]benzoxocino[5,6-c]pyridin-3(5H)-yl)-3-[(2S)-tetrahydro-2H-pyran-2-yl]propanamido}pyridine-2-carboxamide], the pIC50 against human plasma kallikrein was 6.29; at human factor XIa, 8.22.
